SMILES strings stand for the structures.

This series is described as follows: Human HepG2 cell viability assay in 384 well format. It is filed as toxicity, cell-based. More on the design: dose 125 nL, time 70.5 hour; concentration not given beside the values. The following applies: HepG2 cells, read-out: Inhibition.
For the molecule `CCc1nc(C2CCCN(C(=O)c3ccc(Cl)cc3)C2)no1` (stereo not given), the cytotoxicity at 70.5 h came out at 5.79%.

Turning to `O=C(NCCCn1ccnc1)NCC(c1ccco1)N1CCCCC1` (stereo not given), the cytotoxicity at 70.5 h worked out at 4.46%.

As to `Cc1cc(C)n(CC2CCCN2C(=O)c2ccnc(N(C)C)c2)n1` (stereo not given), the cytotoxicity at 70.5 h came out at 10.6%.

Consider `O=C(c1cc(F)ccc1F)C1CCN(C(=O)c2ccco2)CC1`, for which the cytotoxicity at 70.5 h is -3.7%.

In the case of `CC(C)c1nc(C2CCCN(C(=O)c3ccc4[nH]nnc4c3)C2)no1` (stereo not given), the cytotoxicity at 70.5 h is -4%.

Take `c1ccc(CCCN2CCOC(Cn3cccn3)C2)cc1` (stereo not given): the cytotoxicity at 70.5 h was -6.46%.

Take `O=C(NCCCNc1ccc(C(F)(F)F)cn1)c1ccc(F)cc1Br`: the cytotoxicity at 70.5 h was -6.12%.

On to `CN1CC(C(=O)NCc2cccnc2-n2cccn2)CC1=O` (stereo not given), for which the cytotoxicity at 70.5 h is -6.03%.

For the molecule `CCOc1ccc(OCC(O)CN2CCN(S(C)(=O)=O)CC2)cc1` (stereo not given), the cytotoxicity at 70.5 h came out at 0.695%.

Regarding `c1ccc2oc(CN3CCOC(Cn4cccn4)C3)nc2c1` (stereo not given), the cytotoxicity at 70.5 h was -0.847%.

Take `CCc1nc(C2CCCN(C(=O)c3cccc(C(N)=O)c3)C2)no1` (stereo not given): the cytotoxicity at 70.5 h stood at 1.02%.

As to `Cc1ccc(CNC(=O)Cc2c(C)nc3c(c2C)c(=O)[nH]n3C)cc1`, the cytotoxicity at 70.5 h was found to be 4.93%.

As to `O=C(NCCc1ccn(-c2ccccc2)n1)N1CCCC(CO)C1` (stereo not given), the cytotoxicity at 70.5 h is 1.65%.

Regarding `O=C(NCCc1ccn(-c2ccccc2)n1)N1CCSCC1`, the cytotoxicity at 70.5 h worked out at 22.7%.

`Cc1cnn(CC2CCCN2C(=O)c2csc(-c3nnc[nH]3)n2)c1` (stereo not given): the cytotoxicity at 70.5 h was -5%.

Turning to `CN(C)c1cc(C(=O)N2CCCCC2Cn2cccn2)ccn1` (stereo not given), the cytotoxicity at 70.5 h is -1.9%.

As for `CC(=O)Nc1nc(C(=O)N2CCCCC2Cn2cc(C)cn2)cs1` (stereo not given), the cytotoxicity at 70.5 h was found to be 5.83%.

With `Cc1cnn(CC2CCCCN2C(=O)c2ccc3c(c2)COC3)c1` (stereo not given), the cytotoxicity at 70.5 h amounted to 4.39%.

For the molecule `CCc1ccc(OCC(O)CN2CCN(CC)CC2)cc1` (stereo not given), the cytotoxicity at 70.5 h turned out to be 20.5%.

As to `CCN(Cc1ccc2c(c1)OCO2)Cc1nc2c(cnn2C)c(=O)[nH]1`, the cytotoxicity at 70.5 h worked out at 7.27%.

Take `c1cnnc(N2CCCC2CNCc2noc(C3CC3)n2)c1` (stereo not given): the cytotoxicity at 70.5 h worked out at 27.1%.

For the molecule `CCc1ccsc1C(=O)N1CCCN(Cc2cscn2)CC1`, the cytotoxicity at 70.5 h stood at 3.8%.

In the case of `CCc1nc(CNCC2CCCN2c2cccnn2)no1` (stereo not given), the cytotoxicity at 70.5 h was -4.56%.

For the molecule `COc1ccnc(N2CCCN(C(=O)Cc3ccc(C)s3)CC2)n1`, the cytotoxicity at 70.5 h turned out to be 22.9%.

With `Cc1ccc(CN(CC(=O)N2CCOC(C)C2)C2CC2)cc1` (stereo not given), the cytotoxicity at 70.5 h was -6.74%.

In the case of `Cc1ccsc1C(=O)N1CCN(Cc2cscn2)CC1`, the cytotoxicity at 70.5 h was -3.03%.

Consider `CC1CN(C(=O)CN(Cc2ccco2)Cc2cccs2)CCO1` (stereo not given), for which the cytotoxicity at 70.5 h amounted to 3%.

For `CC1CN(C(=O)CN(Cc2ccccc2)C2CC2)CCO1` (stereo not given), the cytotoxicity at 70.5 h is -9.67%.

In the case of `Cc1cc(CN2Cc3ccccc3CC2c2nnc(C)o2)no1` (stereo not given), the cytotoxicity at 70.5 h stood at 1.64%.

Turning to `CS(=O)(=O)NC1CCCN(C(=O)Nc2cccnc2)C1` (stereo not given), the cytotoxicity at 70.5 h was 25.1%.

`CS(=O)(=O)NC1CCCN(C(=O)c2cccnc2)C1` (stereo not given): the cytotoxicity at 70.5 h was -8.57%.

Take `CC(C)C(CNC(=O)Nc1cn[nH]c1)N1CCOCC1` (stereo not given): the cytotoxicity at 70.5 h is -5.6%.

For `CCc1nnc(C2Cc3ccccc3CN2Cc2nc(C)no2)o1` (stereo not given), the cytotoxicity at 70.5 h is -3.78%.

For `CCn1cnnc1CNC(=O)N1CCCCCC1`, the cytotoxicity at 70.5 h was -2.16%.

As to `CN(C(=O)c1ccc(Cl)cc1)C1CCN(c2ccccn2)CC1`, the cytotoxicity at 70.5 h is 2.33%.

Take `Cc1nc(C)n(CC2CCCN(CCC(=O)N3CCOCC3)C2)n1` (stereo not given): the cytotoxicity at 70.5 h is -4.61%.

`CC1CN(C(=O)CN(Cc2ccccc2Cl)C2CCCC2)CCO1` (stereo not given): the cytotoxicity at 70.5 h came out at 6.53%.

Regarding `CCn1c(C)nnc1CN(C)C1CCN(CCCOC)C1` (stereo not given), the cytotoxicity at 70.5 h amounted to 3.25%.

`COc1ccnc(N2CCN(C(=O)Cc3ccc(C)s3)CC2)n1`: the cytotoxicity at 70.5 h was -5.58%.

As for `CC(C)c1nn(C)c(Cl)c1CNCC(O)c1cccc(F)c1` (stereo not given), the cytotoxicity at 70.5 h is -10.3%.

Source of the values: ChEMBL document CHEMBL3507680, “University of Dundee, Gates Library screen for HepG2 cell viability”.
